# Reference: patent publication EP0612525B1, “Transdermal treatment with mast cell degranulating agents for drug-induced hypersensitivity” (BRISTOL-MYERS SQUIBB COMPANY, priority 1993, dated 1994)
# “And” between values parts separate entries of the source, which are not always exact repeats. Equal values may be shown once.
# Legend:
# [1] = system: dermal mast cells; assay: Chymase depletion from mast cells in skin organ cultures (immunohistochemical staining); type: cell-based
# Method: Chymase is a proteolytic enzyme with chymotrypsin activity that is released from dermal mast cells upon degranulation. The enzyme has been implicated in proteolytic breakdown of endothelial cell basement membrane matrix proteins and to thereby facilitate leukocyte diapedesis. The release of chymase from mast cells was detected as a depletion of chymase-specific immunohistochemical staining observed in cryosections of the dermis in skin organ cultures. As a positive control 5 mM of morphine sulfate (MSO4 + ctrl) was added to the culture medium bathing the skin organ cultures. The negative control was untreated culture medium (SCM-ctrl). Cis-urocanic acid was added to the culture medium at 1 µg/ml and 10 µg/ml.
# [2] = system: BALB/c female mice; assay: Contact hypersensitivity, TNBS sensitization / TNCB ear challenge (ear swelling); type: in vivo
# [3] = In vitro drug permeation from plastisol patches through human skin (paper example); type: in vitro ADME
# [4] = Percutaneous permeation of urocanic acid isomers through human cadaver skin (Franz cell diffusion chambers); type: in vitro ADME; settings: in words
# Method: Skin permeation experiments were undertaken to measure the flux of cis-UCA and the trans-UCA) through human skin. This information is required for topical delivery of cis-UCA using a TDS.
# cis-UCA was prepared by ultraviolet irradiation of solutions of trans-UCA (obtained from Sigma Chemical Co., St. Louis, MO), as described above (see Example 1 above).
# For skin permeation experiments, human cadaver skin was obtained and sectioned on a dermatome to yield a partial thickness skin of about 400 µm. Partial thickness skin samples were transferred to standard Franz cell diffusion chambers with the stratum corneum side up, and equilibrated with phosphate buffered saline (PBS) at pH 7.2. at 35°C in standard thermal blocks (Pierce Reacti-Therm).
# Three different solution of UV-irradiated UCA were prepared. All samples were mixtures of both cis-UCA and trans-UCA, contained about between 55% to 67% cis-UCA. The three different solutions (0.5 ml) were applied to the skin samples in the donor chamber of the diffusion chamber, and fractions of the receptor solution (saline) were collected and the amount of cis and trans isomers that permeated through the skin determined by standard HPLC methods. […] The tissue extracts were neutralized and aliquots analyzed by HPLC.
# [5] = system: BALB/c female mice; assay: Contact hypersensitivity, TNBS sensitization / TNCB ear challenge (ear swelling); type: in vivo; settings: for % SUPPRESSION: TNBS 35 µg
# Method: BALB/c female mice were maintained in a specific pathogen-free colony. Age-matched mice between 8 and 12 weeks of age were maintained in filter-protected cages and fed mouse chow and water ad libitum. Lighting was controlled to provide 12 hours light-dark cycles.
# A 7% (w/v) working solution of trinitrobenzene sulfonate (TNBS) was prepared in distilled water. […] For induction of sensitization, each of 5 Balb/c mice received epicutaneous application of 35 µg of TNBS via a Hilltop chamber for 5 hours.
# A contact hypersensitivity response was elicited on day 5 by challenging the right ear of each mouse with 20 µl of 1% trinitronchlorobenzene (TNCB) (in acetone). Ear thickness was measured with a spring-loaded caliper immediately before challenge, and at 24 and 48 hours after challenge. Ear thickness was measured in mm X 10^-3.
# The statistical significance of differences in the contact hypersensitivity response between control and treated mice was determined using Student's t test for two independent variables. Each group contained five mice. Negative control mice were treated for 24 hours with 100 µl of PBS, pH 5.5, and challenged on the right ear 5 days later with 20 µl of 1% TNCB.
# The mice were then epicutaneously sensitized with 100 µl of 0.035% TNBS (w/v) in PBS, pH 5.5.
# For pretreatment plus co-administration, mice were first pretreated for 24 hours as above. Thereafter, 6000 µg of UCA (100 µl of 6% solution, 60 mg/ml in PBS pH 5.5) were placed in the Hilltop chamber along with 35 µg of TNBS.
# Sensitization with TNBS was induced as described above.
# [6] = system: Balb/c mice; assay: Contact hypersensitivity, DNCB sensitization / DNCB ear challenge (ear swelling); type: in vivo
# [7] = system: Balb/c mice; assay: Immune tolerance induction: re-sensitization with DNCB at a second skin site and re-challenge; type: in vivo; settings: for EAR THICKNESS: DNCB 100 µg re-sensitization day 22, 24 Hours after re-challenge; for % SUPPRESSION / EAR SWELLING: DNCB day 22, 24 Hours
# Method: To induce immune tolerance, Balb/c mice were treated with CUA in gel formulation as outlined above and a sensitization response elicited in the standard manner. Two weeks later, the previously sensitized mice were re-sensitized by applying 10 µl of 1% DNCB to a second skin site on shaved backs of both control (non-sensitized) and experimental (immunosuppressed by prior treatment with CUA) mice. Both control and experimental animals were challenged 5 days later by application of 20 µl of 1% DNCB to the left ear; ear thickness measurements were made 24 hours later.
# Balb/c mice (N=8) were pretreated for 24 hours with 1% CUA in HPMC gel or 5% CUA in HPMC gel on the shaved abdominal skin (site 1), and challenged on the right ear five days later. The CUA-treated mice were immunosuppressed as shown in Table X. The same mice were re-sensitized with DNCB on a demarcated area of their shaved backs and rechallenged five days later on their left ears, and the ear thickness measured 24 hours post-challenge.
# [8] = system: inflamed skin; assay: Anti-inflammatory effect on bee-sting inflamed skin (single human subject); type: in vivo
# Method: A subject was stung by a bee on the medial aspect of the lower portion of the right leg. Within one hour the skin site surrounding the bite became inflamed and an allergic reaction of the delayed hypersensitivity type was seen 24 hours later. […] This response persisted for several days.
# The affected area was treated by application of 2% cis-UCA in a gel formulation (hydroxylpropylmethyl cellulose) to a 2-3 cm^2 area of inflamed skin. For a control, a similarly sized area of inflamed skin received the same hydroxylpropylmethyl cellulose gel without cis-UCA. Both treated areas were covered with a transparent dressing.
# [9] = 2 mg (1%) HPMC gel pretreat, DNCB 100 µg, 24 Hours
# [10] = 2 mg (1%) HPMC gel pretreat, DNCB 100 µg, 72 Hours
# [11] = 10 mg (5%) HPMC gel pretreat, DNCB 100 µg, 24 Hours
# [12] = 10 mg (5%) HPMC gel pretreat, DNCB 100 µg, 72 Hours
# [13] = 5 Hours Pretreat 15 mg + DNCB 100 µg, 24 Hours
# [14] = 5 Hours Pretreat 15 mg + DNCB 100 µg, 48 Hours
# [15] = 24 Hours Pretreat 10 mg, then DNCB gel 100 µg, 24 Hours
# [16] = 24 Hours Pretreat 10 mg, then DNCB gel 100 µg, 48 Hours
# [17] = 24 Hours Pretreat 15 mg + DNCB 100 µg, 24 Hours
# [18] = 24 Hours Pretreat 15 mg + DNCB 100 µg, 48 Hours
# [19] = Co-Delivery, 10 mg + DNCB 100 µg, 24 Hours
# [20] = Co-Delivery, 10 mg + DNCB 100 µg, 48 Hours
smiles,measurement,setting,value
"CN1CC[C@]23c4c5ccc(O)c4O[C@H]2[C@@H](O)C=C[C@H]3[C@H]1C5.O=S(=O)(O)O [morphine sulfate, reference compound]",chymase positive mast cell per mm^2,"[1]; 5 mM in culture medium, positive control",37 ± 15 per mm^2
"CCN(CC)CCCC(C)Nc1ccnc2cc(Cl)ccc12 (stereo not drawn) [chloroquine, Chloroquine, reference compound]",% SUPPRESSION,"[2]; 200 µg intradermally, TNBS 2.45 mg, 24 Hours",39.6%
same,% SUPPRESSION,"[2]; 200 µg intradermally, TNBS 2.45 mg, 48 Hours",46.5%
"O=C(O)c1cc(=O)c2c(OCC(O)COc3cccc4oc(C(=O)O)cc(=O)c34)cccc2o1 [sodium cromolyn, reference compound]",suppression of contact sensitization (in words),[2]; 20 µg intradermally,failed to suppress contact sensitization
same,enhancement in the contact sensitivity response,"[2]; 20 µg intradermally, 24 and 48 hours together",14-17%
same,% SUPPRESSION,"[2]; 20 µg intradermally, TNBS 2.45 mg, 24 Hours",+14.1%
same,% SUPPRESSION,"[2]; 20 µg intradermally, TNBS 2.45 mg, 48 Hours",+17.0%
CCCCCCCC/C=C\CCCCCCCC(=O)O [oleic acid],permeation rate of ISDN,[3],significantly enhances
"O=C(O)/C=C/c1cnc[nH]1 [trans-UCA, trans-urocanic acid, reference compound]",fluxes through human skin (comparison of isomers),[4],comparable fluxes
same,suppressive activity on contact sensitization (in words),"[5]; other experiments, compared with cis-UCA",much less suppressive activity
"O=C(O)/C=C\c1c[nH]cn1 [cis-UCA, cis-urocanic acid]",chymase positive mast cell per mm^2,[1]; 1 µg/ml in culture medium,22 ± 20 per mm^2
same,chymase positive mast cell per mm^2,[1]; 10 µg/ml in culture medium,20 ± 10 per mm^2
same,fluxes through human skin (comparison of isomers),[4],comparable fluxes
same,% SUPPRESSION,[6]; [9],71%
same,EAR SWELLING,[6]; [9],26 mm X 10^3
same,EAR SWELLING,[6]; [10],48 mm X 10^3
same,EAR THICKNESS,[6]; [10],288 ± 23 mm X 10^3
same,EAR THICKNESS,"[6]; 2 mg (1%) HPMC gel, 24 h pretreatment, DNCB 100 µg, 24 Hours",270 ± 16 mm X 10^3
same,% SUPPRESSION,[6]; [11],80%
same,EAR SWELLING,[6]; [11],18 mm X 10^3
same,EAR THICKNESS,[6]; [11],261 ± 15 mm X 10^3
same,% SUPPRESSION,[6]; [12],59%
same,EAR SWELLING,[6]; [12],30 mm X 10^3
same,EAR THICKNESS,[6]; [12],270 ± 15 mm X 10^3
same,EAR THICKNESS,"[6]; 5 Hours Pretreat 15 mg (7.5% gel) + DNCB 100 µg, 24 Hours",285 ± 27 mm X 10^3
same,% SUPPRESSION,[6]; [13],46%
same,EAR SWELLING,[6]; [13],42 mm X 10^3
same,% SUPPRESSION,[6]; [14],27%
same,EAR SWELLING,[6]; [14],42 mm X 10^3
same,EAR THICKNESS,[6]; [14],284 ± 20 mm X 10^3
same,EAR THICKNESS,"[6]; 24 Hours Pretreat 10 mg (5% gel), then DNCB gel 100 µg, 24 Hours",260 ± 19 mm X 10^3
same,% SUPPRESSION,[6]; [15],52%
same,EAR SWELLING,[6]; [15],29 mm X 10^3
same,% SUPPRESSION,[6]; [16],69%
same,EAR SWELLING,[6]; [16],20 mm X 10^3
same,EAR THICKNESS,[6]; [16],259 ± 12 mm X 10^3
same,EAR THICKNESS,"[6]; 24 Hours Pretreat 15 mg (7.5% gel) + DNCB 100 µg, 24 Hours",288 ± 25 mm X 10^3
same,% SUPPRESSION,[6]; [17],59%
same,EAR SWELLING,[6]; [17],47 mm X 10^3
same,% SUPPRESSION,[6]; [18],54%
same,EAR SWELLING,[6]; [18],36 mm X 10^3
same,EAR THICKNESS,[6]; [18],276 ± 14 mm X 10^3
same,EAR THICKNESS,"[6]; Co-Delivery, 10 mg (5% gel) + DNCB 100 µg, 24 Hours",277 ± 27 mm X 10^3
same,% SUPPRESSION,[6]; [19],not statistically significant
same,EAR SWELLING,[6]; [19],39 mm X 10^3
same,% SUPPRESSION,"[6]; Co-Delivery, 10 mg + DNCB 100 µg, 24 Hours, listed as UCA",28%
same,% SUPPRESSION,[6]; [20],29%
same,EAR SWELLING,[6]; [20],43 mm X 10^3
same,EAR THICKNESS,[6]; [20],273 ± 23 mm X 10^3
same,% SUPPRESSION,"[5]; intradermal injection 200 µg, 24 Hours",48% and 48.4%
same,% SUPPRESSION,"[5]; intradermal injection 200 µg, 48 Hours",32% and 31.6%
same,% SUPPRESSION,"[5]; pretreatment + co-administration, 24 Hours",53%
same,% SUPPRESSION,"[5]; pretreatment only, 6% UCA PBS pH 5.5, 24 Hours",68%
same,EAR THICKNESS,[7]; 2 mg (1% HPMC gel) day -1,327 ± 60 mm X 10^3
same,% SUPPRESSION,[7]; 2 mg day -1,51%
same,EAR SWELLING,[7]; 2 mg day -1,70 mm X 10^3
same,EAR THICKNESS,[7]; 10 mg (5% HPMC gel) day -1,334 ± 17 mm X 10^3
same,% SUPPRESSION,[7]; 10 mg day -1,42%
same,EAR SWELLING,[7]; 10 mg day -1,84 mm X 10^3
same,% SUPPRESSION,"[2]; 200 µg, 24 hours before TNBS 3.5 mg, 24 hours after challenge",36%
same,% SUPPRESSION,"[2]; 600 µg, 24 hours before TNBS 3.5 mg, 24 hours after challenge",63%
same,% SUPPRESSION,"[2]; pretreatment + co-administration, TNBS 35 µg, 24 Hours",52.8%
same,% SUPPRESSION,"[2]; pretreatment + co-administration, TNBS 35 µg, 48 Hours",56%
same,% SUPPRESSION,"[2]; pretreatment + co-administration, TNBS 35 µg, 48 Hours, listed as cis-UROCANIC ACID",55.8%
same,% SUPPRESSION,"[2]; pretreatment only, 6% UCA PBS pH 5.5, TNBS 35 µg, 24 Hours",68.3%
same,% SUPPRESSION,"[2]; pretreatment only, 6% UCA PBS pH 5.5, TNBS 35 µg, 48 Hours",77%
same,% SUPPRESSION,"[2]; pretreatment only, 6% UCA PBS pH 5.5, TNBS 35 µg, 48 Hours, listed as cis-UROCANIC ACID",77.2%
same,appearance of treated skin site,"[8]; 2% gel, 14 hours after initiation of treatment",depressed (appearing normal) and lacked any red color
same,erythema and induration of inflamed skin,"[8]; 2% in hydroxylpropylmethyl cellulose gel, 2-3 cm^2 area, approximately 1 hour after application",erythema and induration disappeared
